Experimental findings from patent US7863307B2, “Process for synthesizing a CETP inhibitor” (priority 2005, dated 2011) are described below.

Holding throughout (assay type): physicochemical
A short description of data set [1]: solid-form stability on standing (conversion to other forms). Conditions: crystalline non-solvate form.
Data set [2] can be described thus: hygroscopicity of the crystalline non-solvate form in humid or dry air.
Data set [3] is described as follows: solubility in water / aqueous environments.

“Also recorded” adds a separate entry of the source.

In the case of `COc1cc(F)c(C(C)C)cc1-c1ccc(C(F)(F)F)cc1CN1C(=O)O[C@H](c2cc(C(F)(F)F)cc(C(F)(F)F)c2)[C@@H]1C` [compound 12, (4S,5R)-5-[3,5-bis(trifluoromethyl)phenyl]-3-{[4′-fluoro-5′-isopropyl-2′-methoxy-4-(trifluoromethyl)biphenyl-2-yl]methyl}-4-methyl-1,3-oxazolidin-2-one], the results for the “conversion of crystal form on standing” value in data set [1] (elevated temperatures) and in data set [1] (room temperature) were “converts more rapidly to the amorphous form at elevated temperatures” and “slowly converts to the amorphous form on standing for long periods of time; also recorded: stable at room temperature for moderate periods of time with respect to changing to the amorphous form”, respectively. Further, the hydrate formation entry in data set [2] is “does not convert to a hydrate in humid or dry air”. For the same compound, in data set [2], the hygroscopicity result is “non-hygroscopic”. In addition, the solubility in water result in data set [3] was “very poorly soluble in water”.
